Reference: patent US20250171438A1 (Agios Pharmaceuticals, Inc., priority 2022, published 2025)

These compounds were tested against T1, human PAH with the R408W mutation (Homo sapiens, UniProt P00439, R408W) (assay: Cell Based Phenylalanine Flux Assay). Details: A375 cells expressing human R408W PAH; 24 hrs compound incubation; 13C-Tyrosine by LC-MS; average where tested multiple times; read-out: AC50.
T1 construct: expressed in transfected cells
T1 sequence (P00439 1-452 R408W): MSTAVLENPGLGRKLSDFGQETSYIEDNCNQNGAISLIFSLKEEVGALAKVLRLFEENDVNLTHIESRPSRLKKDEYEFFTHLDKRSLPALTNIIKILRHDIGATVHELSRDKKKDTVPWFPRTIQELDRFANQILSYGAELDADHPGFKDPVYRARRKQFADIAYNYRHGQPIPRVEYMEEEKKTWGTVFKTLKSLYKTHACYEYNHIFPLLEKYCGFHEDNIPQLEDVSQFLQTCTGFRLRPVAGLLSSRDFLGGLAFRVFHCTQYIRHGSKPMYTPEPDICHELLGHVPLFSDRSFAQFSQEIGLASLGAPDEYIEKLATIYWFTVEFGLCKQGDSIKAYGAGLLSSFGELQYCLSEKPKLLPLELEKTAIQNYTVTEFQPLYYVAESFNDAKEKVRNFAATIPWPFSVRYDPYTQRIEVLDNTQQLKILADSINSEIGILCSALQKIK

Row | SMILES | AC50 [nM]
1 | O=C(c1scnc1C1CC1)N1CCc2[nH]cnc2[C@H]1c1nc2ccccc2s1 [Example 1387] | < 500
2 | O=C(c1scnc1C1CC1)N1CCc2[nH]cnc2[C@@H]1c1nc2ccccc2s1 [Example 1388, (R)-(4-(benzo[d]thiazol-2-yl)-6,7-dihydro-1H-imidazo[4,5-c]pyridin-5(4H)-yl)(4-cyclopropylthiazol-5-yl)methanone] | 1000 to 5000
3 | Cc1nc(C(F)(F)F)oc1C(=O)N1CCc2[nH]cnc2[C@H]1c1nc2ccccc2s1 [Example 1393] | < 500
4 | Cc1nc(C(F)(F)F)oc1C(=O)N1CCc2[nH]cnc2[C@@H]1c1nc2ccccc2s1 [Example 1394, (R)-(4-(benzo[d]thiazol-2-yl)-6,7-dihydro-1H-imidazo[4,5-c]pyridin-5(4H)-yl)(4-methyl-2-(trifluoromethyl)oxazol-5-yl)methanone] | 1000 to 5000
5 | Cc1nc(C2CC2)oc1C(=O)N1CCc2[nH]cnc2[C@H]1c1nc2ccccc2s1 [Example 1395] | < 500
6 | Cc1nc(C2CC2)oc1C(=O)N1CCc2[nH]cnc2[C@@H]1c1nc2ccccc2s1 [Example 1396, (R)-(4-(benzo[d]thiazol-2-yl)-6,7-dihydro-1H-imidazo[4,5-c]pyridin-5(4H)-yl)(2-cyclopropyl-4-methyloxazol-5-yl)methanone] | > 5000
7 | Cc1nc(C(C)C)oc1C(=O)N1CCc2[nH]cnc2[C@H]1c1nc2ccccc2s1 [Example 1397] | < 500
8 | Cc1nc(C(C)C)oc1C(=O)N1CCc2[nH]cnc2[C@@H]1c1nc2ccccc2s1 [Example 1398, (R)-(4-(benzo[d]thiazol-2-yl)-6,7-dihydro-1H-imidazo[4,5-c]pyridin-5(4H)-yl)(2-isopropyl-4-methyloxazol-5-yl)methanone] | 1000 to 5000
9 | Cc1nc(CC2CC2)oc1C(=O)N1CCc2[nH]cnc2[C@H]1c1nc2ccccc2s1 [Example 1399] | < 500
10 | Cc1nc(CC2CC2)oc1C(=O)N1CCc2[nH]cnc2[C@@H]1c1nc2ccccc2s1 [Example 1400, (R)-(4-(benzo[d]thiazol-2-yl)-6,7-dihydro-1H-imidazo[4,5-c]pyridin-5(4H)-yl)(2-(cyclopropylmethyl)-4-methyloxazol-5-yl)methanone] | 1000 to 5000
11 | O=C(c1cnc(C(F)(F)F)o1)N1CCc2[nH]cnc2[C@H]1c1nc2c(F)cccc2s1 [Example 1401, (S)-(4-(4-fluorobenzo[d]thiazol-2-yl)-6,7-dihydro-1H-imidazo[4,5-c]pyridin-5(4H)-yl)(2-(trifluoromethyl)oxazol-5-yl)methanone] | < 500
12 | O=C(c1cnc(C(F)(F)F)o1)N1CCc2[nH]cnc2[C@@H]1c1nc2c(F)cccc2s1 [Example 1402, (R)-(4-(4-fluorobenzo[d]thiazol-2-yl)-6,7-dihydro-1H-imidazo[4,5-c]pyridin-5(4H)-yl)(2-(trifluoromethyl)oxazol-5-yl)methanone] | 1000 to 5000
13 | O=C(c1cnn(C(F)F)c1)N1CCc2[nH]cnc2[C@H]1c1nc2ccccc2s1 [Example 1409] | 500 to 1000
14 | O=C(c1cnn(C(F)F)c1)N1CCc2[nH]cnc2[C@@H]1c1nc2ccccc2s1 [Example 1410, (R)-(4-(benzo[d]thiazol-2-yl)-6,7-dihydro-1H-imidazo[4,5-c]pyridin-5(4H)-yl)(1-(difluoromethyl)-1H-pyrazol-4-yl)methanone] | > 5000
15 | O=C(c1cnn(-c2ccc(F)cc2)c1)N1CCc2[nH]cnc2[C@H]1c1nc2ccccc2s1 [Example 1411] | < 500
16 | O=C(c1cnn(-c2ccc(F)cc2)c1)N1CCc2[nH]cnc2[C@@H]1c1nc2ccccc2s1 [Example 1412, (R)-(4-(benzo[d]thiazol-2-yl)-6,7-dihydro-1H-imidazo[4,5-c]pyridin-5(4H)-yl)(1-(4-fluorophenyl)-1H-pyrazol-4-yl)methanone] | 1000 to 5000
17 | Cc1nc(-c2cnn(CC(F)(F)F)c2)oc1C(=O)N1CCc2[nH]cnc2[C@H]1c1nc2ccccc2s1 [Example 1413] | < 500
18 | Cc1nc(-c2cnn(CC(F)(F)F)c2)oc1C(=O)N1CCc2[nH]cnc2[C@@H]1c1nc2ccccc2s1 [Example 1414, (R)-(4-(benzo[d]thiazol-2-yl)-6,7-dihydro-1H-imidazo[4,5-c]pyridin-5(4H)-yl)(4-methyl-2-(1-(2,2,2-trifluoroethyl)-1H-pyrazol-4-yl)oxazol-5-yl)methanone] | 1000 to 5000
19 | CC(C)n1cc(-c2ncc(C(=O)N3CCc4[nH]cnc4[C@H]3c3nc4ccccc4s3)o2)cn1 [Example 1415] | < 500
20 | CC(C)n1cc(-c2ncc(C(=O)N3CCc4[nH]cnc4[C@@H]3c3nc4ccccc4s3)o2)cn1 [Example 1416, (R)-(4-(benzo[d]thiazol-2-yl)-6,7-dihydro-1H-imidazo[4,5-c]pyridin-5(4H)-yl)(2-(1-isopropyl-1H-pyrazol-4-yl)oxazol-5-yl)methanone] | 1000 to 5000
21 | O=C(c1nnc(-c2ccccc2)o1)N1CCc2[nH]cnc2[C@H]1c1nc2ccccc2s1 [Example 1417] | < 500
22 | O=C(c1nnc(-c2ccccc2)o1)N1CCc2[nH]cnc2[C@@H]1c1nc2ccccc2s1 [Example 1418, (R)-(4-(benzo[d]thiazol-2-yl)-6,7-dihydro-1H-imidazo[4,5-c]pyridin-5(4H)-yl)(5-phenyl-1,3,4-oxadiazol-2-yl)methanone] | 1000 to 5000
23 | O=C(c1nnc(-c2ccccc2)s1)N1CCc2[nH]cnc2[C@H]1c1nc2ccccc2s1 [Example 1419] | < 500
24 | O=C(c1nnc(-c2ccccc2)s1)N1CCc2[nH]cnc2[C@@H]1c1nc2ccccc2s1 [Example 1420, (R)-(4-(benzo[d]thiazol-2-yl)-6,7-dihydro-1H-imidazo[4,5-c]pyridin-5(4H)-yl)(5-phenyl-1,3,4-thiadiazol-2-yl)methanone] | > 5000
25 | Cc1nc(-c2cnn(C(C)C)c2)oc1C(=O)N1CCc2[nH]cnc2[C@H]1c1nc2ccccc2s1 [Example 1423] | < 500
26 | Cc1nc(-c2cnn(C(C)C)c2)oc1C(=O)N1CCc2[nH]cnc2[C@@H]1c1nc2ccccc2s1 [Example 1424, (R)-(4-(benzo[d]thiazol-2-yl)-6,7-dihydro-1H-imidazo[4,5-c]pyridin-5(4H)-yl)(2-(1-isopropyl-1H-pyrazol-4-yl)-4-methyloxazol-5-yl)methanone] | 1000 to 5000
27 | CC(C)(C)c1ncc(C(=O)N2CCc3[nH]cnc3[C@H]2c2nc3c(F)cccc3s2)s1 [Example 1425] | < 500

Now from value to compound:

Row | AC50 [nM] | SMILES
28 | < 500 | Cn1cc(-c2ncc(C(=O)N3CCc4[nH]cnc4[C@H]3c3nc4ccccc4s3)s2)c(C2CC2)n1 [Example 1385]
29 | 1000 to 5000 | Cn1cc(-c2ncc(C(=O)N3CCc4[nH]cnc4[C@@H]3c3nc4ccccc4s3)s2)c(C2CC2)n1 [Example 1386, (R)-(4-(benzo[d]thiazol-2-yl)-6,7-dihydro-1H-imidazo[4,5-c]pyridin-5(4H)-yl)(2-(3-cyclopropyl-1-methyl-1H-pyrazol-4-yl)thiazol-5-yl)methanone]
30 | < 500 | Cn1cc(-c2ncc(C(=O)N3CCc4[nH]cnc4[C@H]3c3nc4ccccc4s3)s2)c(C(F)(F)F)n1 [Example 1389]
31 | < 500 | O=C(c1cnc(-c2cnn(CC(F)(F)F)c2)o1)N1CCc2[nH]cnc2[C@H]1c1nc2ccccc2s1 [Example 1391]
32 | 1000 to 5000 | O=C(c1cnc(-c2cnn(CC(F)(F)F)c2)o1)N1CCc2[nH]cnc2[C@@H]1c1nc2ccccc2s1 [Example 1392, (R)-(4-(benzo[d]thiazol-2-yl)-6,7-dihydro-1H-imidazo[4,5-c]pyridin-5(4H)-yl)(2-(1-(2,2,2-trifluoroethyl)-1H-pyrazol-4-yl)oxazol-5-yl)methanone]
33 | 500 to 1000 | O=C(c1cnc(-c2ccnc(C(F)(F)F)c2)s1)N1CCc2[nH]cnc2[C@H]1c1nc2ccccc2s1 [Example 1403]
34 | 1000 to 5000 | O=C(c1cnc(-c2ccnc(C(F)(F)F)c2)s1)N1CCc2[nH]cnc2[C@@H]1c1nc2ccccc2s1 [Example 1404, (R)-(4-(benzo[d]thiazol-2-yl)-6,7-dihydro-1H-imidazo[4,5-c]pyridin-5(4H)-yl)(2-(2-(trifluoromethyl)pyridin-4-yl)thiazol-5-yl)methanone]
35 | < 500 | Cc1nn(C)c(C)c1-c1ncc(C(=O)N2CCc3[nH]cnc3[C@H]2c2nc3ccccc3s2)s1 [Example 1405]
36 | 500 to 1000 | Cc1nn(C)c(C)c1-c1ncc(C(=O)N2CCc3[nH]cnc3[C@@H]2c2nc3ccccc3s2)s1 [Example 1406, (R)-(4-(benzo[d]thiazol-2-yl)-6,7-dihydro-1H-imidazo[4,5-c]pyridin-5(4H)-yl)(2-(1,3,5-trimethyl-1H-pyrazol-4-yl)thiazol-5-yl)methanone]
37 | < 500 | Cn1ncc(-c2ncc(C(=O)N3CCc4[nH]cnc4[C@H]3c3nc4ccccc4s3)s2)c1C(F)(F)F [Example 1407]
38 | 1000 to 5000 | Cn1ncc(-c2ncc(C(=O)N3CCc4[nH]cnc4[C@@H]3c3nc4ccccc4s3)s2)c1C(F)(F)F [Example 1408, (R)-(4-(benzo[d]thiazol-2-yl)-6,7-dihydro-1H-imidazo[4,5-c]pyridin-5(4H)-yl)(2-(1-methyl-5-(trifluoromethyl)-1H-pyrazol-4-yl)thiazol-5-yl)methanone]
39 | < 500 | CC(C)(C)c1ncc(C(=O)N2CCc3[nH]cnc3[C@H]2c2nc3ccccc3s2)s1 [Example 1421]
40 | 1000 to 5000 | CC(C)(C)c1ncc(C(=O)N2CCc3[nH]cnc3[C@@H]2c2nc3ccccc3s2)s1 [Example 1422, (R)-(4-(benzo[d]thiazol-2-yl)-6,7-dihydro-1H-imidazo[4,5-c]pyridin-5(4H)-yl)(2-(tert-butyl)thiazol-5-yl)methanone]
